Results as given in patent publication US8883415B2, “Aza-benzazolium containing cyanine dyes” (Life Technologies Corporation, priority 1999, dated 2014).
Entries after “also recorded” stand apart in the source; their conditions may differ.

Columns and labels:
[1] = system: double-stranded bacteriophage λ cl857 DNA that is digested with HindIII restriction endonuclease; test: Detecting nucleic acids in gels; assay type: binding; settings: POLAROID 667 B&W film; FOTODYNE 254 nm epi.; 1 micromolar dye
[2] = system: double-stranded DNA; test: Detecting double-stranded DNA in the presence of single-stranded DNA; assay type: binding; settings: nucleic acids 2 micrograms/mL; dye 1 micromolar; excitation 540 nm, emission 570 nm
Experimental: Samples containing nucleic acids at a concentration of 2 micrograms/mL are combined with Compound 16, Compound 22, or Compound 24 at a final dye concentration of 1 micromolar in 10 mM Tris-HCl, 1 mM EDTA, pH 7.5, and mixed gently. The resulting mixture is allowed to incubate for 5-60 minutes at room temperature, protected from light, and sample fluorescence is measured using a fluorescence microplate reader, with excitation at 540 nm and emission at 570 nm. […] If, however, the dye concentration is reduced relative to the concentration of single-stranded nucleic acids, the fluorescence upon binding those nucleic acids increases relative to that of the double-stranded DNA-dye complex. Thus the assay is always performed in sufficient dye excess.

[3] = system: double-stranded DNA; test: Detecting double-stranded DNA in solution (fluorescence microplate reader); assay type: binding
Experimental: Samples containing 0.1 ng/mL to 1 microgram/mL double-stranded DNA are prepared in 10 mM Tris-HCl, 1 mM EDTA, pH 7.5. The selected dye of the invention is dissolved in DMSO at a concentration of 1-10 mM and then diluted into the same buffer at a concentration sufficient to achieve final optical densities of 0.1 and 0.01 at 500 nm, 530 nm, 540 nm or 560 nm. Equal volumes (100 microliters each) of DNA sample solution and dye solution at each concentration are combined and mixed gently at room temperature in a microplate well.
Samples are allowed to equilibrate for 5-60 minutes, protected from light, and the fluorescence of the sample is measured using a fluorescence microplate reader. DNA concentration is determined by comparison of the sample fluorescence with a standard curve obtained with that dye for each dye concentration. The sensitivity limit of several dyes in this assay is shown (Table 5).

[4] = system: double-stranded bacteriophage λ cl857 DNA that is digested with HindIII restriction endonuclease; test: Detecting nucleic acids in gels; assay type: binding; settings: 1 micromolar dye
Experimental: DNA samples are loaded onto agarose or polyacrylamide gels and electrophoresed using standard conditions. Selected dyes of the invention are dissolved in DMSO at a concentration of 1-10 micromolar and diluted into 0.5×TBE buffer to a final concentration of 1 micromolar dye. Gels are incubated for 20-90 minutes in this staining solution, with gentle agitation, at room temperature, protected from light. Nucleic acids are visualized by transillumination at 300 nm, followed by direct visual detection or photography using Polaroid black-and-white print film. Nucleic acids are alternatively visualized by scanning using a FMBIO II laser scanner with a 532 nm frequency-doubled YAG laser source or a charge-coupled device camera system coupled with an ultraviolet (300 nm) light source, or a visible light transilluminator.

[5] = system: 18-base oligodeoxynucleotide sequencing primer; test: Detecting oligonucleotides in solution; assay type: binding; settings: Excitation 540 nm/Emission 570 nm
Experimental: Selected dyes of the invention are dissolved in DMSO at 1-10 micromolar concentration, then diluted into 10 mM Tris-HCl, 1 mM EDTA, pH 7.5 to a final optical density of 0.1 or 0.01 at 530 nm or 540 nm. The resulting dye solutions are combined with an equal volume of an 18-base oligodeoxynucleotide sequencing primer solution at concentrations of 0.1 ng/mL to 1 microgram/mL in the same buffer. The resulting mixture is mixed gently and incubated for 5-60 minutes at room temperature, protected from light, and the sample fluorescence is measured in a fluorescence microplate reader.

[6] = system: Escherichia coli ribosomal RNA; test: Detecting RNA in solution; assay type: binding; settings: Excitation 540 nm/Emission 570 nm
Experimental: Selected dyes of the invention are dissolved in DMSO at 1-10 micromolar concentration, then diluted into 10 mM Tris-HCl, 1 mM EDTA, pH 7.5 to a final optical density of 0.1 or 0.01 at 530 nm or 540 nm. These dye solutions are combined with an equal volume of Escherichia coli ribosomal RNA at concentrations ranging from 0.25 ng/mL to 1 microgram/mL in microplate wells. The resulting mixtures are mixed gently and incubated for 5-60 minutes at room temperature, protected from light, and the sample fluorescence is measured.

[7] = system: proteins; test: Detection of proteins in SDS-polyacrylamide gels; assay type: binding; settings: 1-3 μM dye in 7.5% acetic acid
Experimental: The pure protein or mixture of proteins of interest is prepared in Loading Buffer (50 mM Tris-HCl, pH 6.8, 2% SDS, 10% glycerol, and 0.015% bromophenol blue). Dithiothreitol is added to each sample, to a final concentration of 0.1 M. The samples are heated for 4-5 minutes at 90-95 °C and loaded onto a 15% Tris-glycine polyacrylamide mini- or full-sized gel containing 0.05%-0.1% SDS, with a 4% stacking gel. The gel is electrophoresed under standard conditions, in a standard Tris-glycine buffer containing 0.05%-0.1% SDS. The resulting gel is transferred to a small staining dish containing a 1-3 μM solution of Compound 25 in 7.5% acetic acid (in water). The staining solution is then covered with foil to protect it from room light and gently agitated for 45 minutes-1 hour. […] The gel is then removed from the staining dish, rinsed briefly in 7.5% acetic acid and transferred directly to a UV-transilluminator. The gel, with the stained protein bands is photographed using 300 nm transillumination and black and white POLAROID 667 print film with a Wratten 9 gelatin filter. […] Proteins appear as white bands on a grey to black background in the POLAROID photograph.

[8] = system: Jurkat human T-cell leukemia cells; test: Detection of apoptosis by flow cytometry; assay type: cell-based; settings: 30 minutes on ice, 488 nm excitation
Experimental: A 1 mM solution of Compound 27 in DMSO is prepared. Jurkat human T-cell leukemia cells are treated with 10 μM camptothecin to induce apoptosis. A sample of the cells (1×10^8 cells/mL) is incubated with enough of the Compound 27 stock solution to give a final dye concentration of 0.1 μM, and sufficient propidium iodide to give a final concentration of 1.5 μM. After incubating for 30 minutes on ice, the cell samples are analyzed on a FacsVantage flow cytometer using 488-argon laser excitation, with emission at 530/30 and 675/20. Apoptotic cells are compared to control cells that were incubated with the same final concentration of DMSO used in the staining solution.

[9] = target: bovine serum albumin (Bos taurus, UniProt P02769); test: Detecting proteins in solution; assay type: binding; settings: 2 micromolar dye, 0.05% SDS; either 10 minutes at 90° C. or 5-60 minutes at room temperature
Chain of bovine serum albumin (P02769 25-607): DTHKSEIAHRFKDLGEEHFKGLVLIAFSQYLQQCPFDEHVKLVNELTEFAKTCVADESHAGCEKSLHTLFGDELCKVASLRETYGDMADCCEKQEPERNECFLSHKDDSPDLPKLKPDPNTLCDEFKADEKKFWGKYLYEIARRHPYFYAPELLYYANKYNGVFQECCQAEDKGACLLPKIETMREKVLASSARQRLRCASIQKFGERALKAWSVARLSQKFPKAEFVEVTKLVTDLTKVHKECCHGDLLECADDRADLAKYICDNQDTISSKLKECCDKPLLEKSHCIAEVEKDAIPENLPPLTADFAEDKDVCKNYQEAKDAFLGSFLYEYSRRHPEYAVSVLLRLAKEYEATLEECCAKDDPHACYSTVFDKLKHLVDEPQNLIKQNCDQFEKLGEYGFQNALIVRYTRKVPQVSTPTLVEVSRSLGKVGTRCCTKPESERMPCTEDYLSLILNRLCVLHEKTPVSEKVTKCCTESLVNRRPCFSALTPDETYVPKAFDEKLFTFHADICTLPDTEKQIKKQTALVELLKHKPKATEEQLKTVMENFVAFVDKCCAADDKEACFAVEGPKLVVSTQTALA
Experimental: Compound 51 and Compound 44 are dissolved in DMSO at 1-10 mM and then diluted into 10 mM Tris-HCl, 1 mM EDTA, pH 7.5, containing 0.05% sodium dodecyl sulfate, to a final concentration of 2 micromolar. This dye solution is combined with samples containing bovine serum albumin at 100 ng/mL to 10 micrograms/mL. Samples are optionally incubated for 10 minutes at 90° C. and then cooled to room temperature, or are incubated for 5-60 minutes at room temperature. Fluorescence is measured using a fluorescence microplate reader with excitation at 540 nm and emission at 590 nm for Compound 44 and with excitation at 600 nm and emission at 670 nm for Compound 51. The fluorescence signal obtained from Compound 44 or 51 in buffer alone (control) is subtracted from the fluorescence recorded for the protein-containing samples in order to determine the intensity of the signal that is due to the presence of protein. Protein concentrations are then determined by comparison of the signal intensity thus obtained with the signals obtained using a dilution series of known concentration prepared using either the same protein or a protein standard, such as bovine serum albumin. The sensitivity limit for either dye under either condition is about 100 ng/mL bovine serum albumin (FIGS. 3 and 4).

[10] = system: DNA; test: Excitation and emission wavelengths when associated with DNA; assay type: physicochemical
[11] = Excitation 540 nm/Emission 570 nm
[12] = BOEHRINGER MANNHEIM LUMIIMAGER CCD, 300 nm trans., 520 nm em.
[13] = BOEHRINGER MANNHEIM LUMIIMAGER CCD, 300 nm trans., 545 nm em
[14] = HITACHI FMBIO II laser scanner, 532 nm freq.-doubled YAG laser
[15] = POLAROID 667 B&W film, DARK READER visible light box
[16] = POLAROID 667 B&W film, FOTODYNE 300 nm trans.
[17] = Excitation 530 nm/Emission 560 nm

Structure (SMILES) | Sensitivity for detecting double-stranded DNA in agarose gels [1] [pg] | Sensitivity Limit, High dye concentration (0.1 OD) [3, 11] [ng/mL] | Sensitivity Limit, Low dye concentration (0.01 OD) [3, 11] [ng/mL] | Sensitivity for detecting double-stranded DNA in agarose gels [4, 12] [pg] | Sensitivity for detecting double-stranded DNA in agarose gels [4, 13] [pg] | Sensitivity for detecting double-stranded DNA in agarose gels [4, 14] [pg] | Sensitivity for detecting double-stranded DNA in agarose gels [4, 15] [pg] | Sensitivity for detecting double-stranded DNA in agarose gels [4, 16] [pg] | further results
CCN(CC)Cc1ccc(C2=C/C(=C\c3nc4c(ccc[n+]4C)o3)c3ccccc3N2C)cc1.[I-] [Compound 22] | 30 | 10 | 1.0 | 830 | 50 | 7 | 60 | 120 | Preferential fluorescent staining of double-stranded DNA in the presence of single-stranded DNA and RNA [2]: preferential fluorescent staining of double-stranded DNA; also recorded: detected preferentially
CC[N+](C)(CC)Cc1ccc(C2=C/C(=C\c3nc4c(ccc[n+]4C)o3)c3ccccc3N2C)cc1 [Compound 24] | 30 | 10 | 5.0 | 420 | 50 | 5 | 120 | 60 | Preferential fluorescent staining of double-stranded DNA in the presence of single-stranded DNA and RNA [2]: detected preferentially
CC[N+](C)(CC)Cc1ccc(C2=C/C(=C\c3nc4c(ccc[n+]4C)o3)c3cc(OC)ccc3N2C)cc1 [Compound 25] | 120 | <10 | 0.5 | 1700 | 100 | 25 | 240 | 120 | Sensitivity Limit, High dye concentration (0.1 OD) [5]: <10 ng/mL; Sensitivity Limit, Low dye concentration (0.01 OD) [5]: >10 ng/mL; Sensitivity Limit, High dye concentration (0.1 OD) [6]: 200 ng/mL; Sensitivity Limit, Low dye concentration (0.01 OD) [6]: 1.2 ng/mL; Visual appearance of stained protein bands ([7]; 300 nm transillumination): brightly fluorescent orange bands; Visibility of protein bands in stained gel ([7]; after 10 minutes): protein bands are readily apparent
C[n+]1cccc2oc(/C=C3\C=CN(CCC[N+](C)(C)C)c4ccccc43)nc21 [Compound 27] |  |  |  |  |  |  |  |  | Differentiation of apoptotic and normal cells (plot of FL1 versus FL3) ([8]; 0.1 μM dye, 10 μM camptothecin-induced apoptosis): capable of differentiating between apoptotic and normal cells; Sensitivity Limit, High dye concentration (0.1 OD) [3, 17]: 20 ng/mL; Sensitivity Limit, Low dye concentration (0.01 OD) [3, 17]: 0.5 ng/mL
CCCCC1=C/C(=C\c2nc3c(cc(Br)c[n+]3C)s2)c2ccccc2N1c1ccccc1.[I-] [Compound 44] |  |  |  |  |  |  |  |  | Sensitivity limit for bovine serum albumin [9]: about 100 ng/mL
CN1C(c2ccccc2)=C/C(=C\C=C\c2nc3c(ccc[n+]3C)o2)c2ccccc21.[I-] [Compound 51] |  |  |  |  |  |  |  |  | Sensitivity limit for bovine serum albumin [9]: about 100 ng/mL
CN1C=C/C(=C\C(=C\c2sc3ccccc3[n+]2C)c2ccccc2)c2ccccc21 [Compound 60] |  |  |  |  |  |  |  |  | Emission wavelength [10]: 659 nm; Excitation wavelength [10]: 642 nm
CC[N+](C)(CC)CCC[n+]1c(-c2ccccc2)c2cc(N)ccc2c2ccc(N)cc21.[I-].[I-] [propidium iodide, reference compound] |  |  |  |  |  |  |  |  | Cells stained ([8]; 1.5 μM): Late stage apoptotic and necrotic cells are stained
